Drawing on patent US20150289512A1, “METHOD FOR PROMOTING PLANT GROWTH” (SUMITOMO CHEMICAL COMPANY, LIMITED, priority 2012, published 2015), this text covers relative leaf area (% of untreated control) and change in vivo for 37 molecules.

The test system of one test is Nicotiana benthamiana. In words: Test Example 6: growth promotion under low-temperature stress by hydroponics of Nicotiana benthamiana, 0.1 ppm. Format: in vivo. The settings on record: 0.1 ppm in medium, low-temperature stress 7 days at 1.5±1.0° C., green leaf area 3 days later, equation (1). The method in brief:
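Seeds grown in half-strength Murashige–Skoog medium (pH 5.8), compound at 0.1 ppm (0.1% DMSO), 7 days at 22 °C, 4,000 lux, 16 h day; then 7 days at 1.5±1.0 °C, 2,000 lux; then 3 days recovery at 22 °C. Green leaf area imaged; relative leaf area versus DMSO controls before and after cold, ≥5 scored as mitigating.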

Test [1] relates to Rice (variety: Nipponbare). The experiment in a line: Test Example 3: promotion of root growth by hydroponics of rice, 0.1 ppm. As to conditions: Oryza sativa, hydroponic solution containing the test compound at 0.1 ppm, average of 4 or 5 individuals, read-out: Relative value of length of seminal root (%-untreated control plot). In kind it is in vivo. In a few lines: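 Surface-sterilised Nipponbare seeds were germinated 3 days in the dark at 28 °C in ¼-strength Hoagland solution containing 0.1 ppm compound; DMSO-only solution served as control. Seedlings were then grown 3 days hydroponically at 26 °C, 4,000 lux, 16 h day. Seminal root length was measured and averaged over 4–5 plants.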

Each structure is given as a SMILES string.

Turning to `COC(=O)c1cc2cc(C(F)(F)F)ccc2o1` [Compound 3, methyl 5-(trifluoromethyl)benzofuran-2-carboxylate], the relative leaf area (% of untreated control) at 0.1 ppm with Nicotiana benthamiana is no less than 5%. Take `COC(=O)c1oc2ccc(C(F)(F)F)cc2c1C` [Compound 33]: in test [1], the change in vivo at 0.1 ppm is greater than 5%. With `Cc1c(C(=O)O)oc2ccc(C(F)(F)F)cc12` [Compound 34], the change in vivo at 0.1 ppm in test [1] is greater than 5%. In the case of `Cc1c(C(=O)O)oc2ccccc12` [Compound 36], in the test on Nicotiana benthamiana, the relative leaf area (% of untreated control) at 0.1 ppm is no less than 5%. In test [1], the change in vivo at 0.1 ppm is greater than 5%. Take `COC(=O)c1oc2ccccc2c1C` [Compound 37]: in test [1], the change in vivo at 0.1 ppm was greater than 5%. In the test on Nicotiana benthamiana, `COC(=O)c1oc2ccccc2c1NC(=O)C(F)(F)F` [Compound 39] showed a relative leaf area (% of untreated control) at 0.1 ppm of no less than 5%. On to `COC(=O)c1oc2ccccc2c1NC(C)=O` [Compound 40], for which the change in vivo at 0.1 ppm in test [1] was greater than 5%.

With `COC(=O)c1oc2ccccc2c1N(C(C)=O)C(C)=O` [Compound 41], the change in vivo at 0.1 ppm in test [1] is greater than 5%. Turning to `O=C(O)c1cc2c(C(F)(F)F)cccc2o1` [Compound 43], in the test on Nicotiana benthamiana, the relative leaf area (% of untreated control) at 0.1 ppm was no less than 5%. In addition, the change in vivo at 0.1 ppm in test [1] was greater than 5%. `CCOC(=O)c1cc2c(C(F)(F)F)cccc2o1` [Compound 44]: in test [1], the change in vivo at 0.1 ppm is greater than 5%. `COC(=O)c1cc2c(C(F)(F)F)cccc2o1` [Compound 45] returned a relative leaf area (% of untreated control) at 0.1 ppm with Nicotiana benthamiana of no less than 5%. Besides, in test [1], the change in vivo at 0.1 ppm is greater than 5%. The like results for `COC(=O)c1oc2ccc(C(F)(F)F)cc2c1O` [Compound 50] were, in that order, no less than 5% and greater than 5%. For `NC(=O)c1cc2cc(C(F)(F)F)ccc2o1` [Compound 51], the change in vivo at 0.1 ppm in test [1] is greater than 5%. As for `CNC(=O)c1cc2cc(C(F)(F)F)ccc2o1` [Compound 52], in the test with Nicotiana benthamiana, the relative leaf area (% of untreated control) at 0.1 ppm was no less than 5%. In addition, in test [1], the change in vivo at 0.1 ppm was greater than 5%. Molecule `O=C(Nc1ccccc1)c1cc2cc(C(F)(F)F)ccc2o1` [Compound 53] returned a relative leaf area (% of untreated control) at 0.1 ppm in the test on Nicotiana benthamiana of no less than 5%. Moreover, the change in vivo at 0.1 ppm in test [1] is greater than 5%. In the test on Nicotiana benthamiana, `O=C(NCc1ccccc1)c1cc2cc(C(F)(F)F)ccc2o1` [Compound 54] showed a relative leaf area (% of untreated control) at 0.1 ppm of no less than 5%. Further, in test [1], the change in vivo at 0.1 ppm was greater than 5%. Consider `O=C(Oc1ccccc1)c1cc2cc(C(F)(F)F)ccc2o1` [Compound 55], for which, in test [1], the change in vivo at 0.1 ppm was greater than 5%. As for `O=C(OCc1ccccc1)c1cc2cc(C(F)(F)F)ccc2o1` [Compound 56], in the test on Nicotiana benthamiana, the relative leaf area (% of untreated control) at 0.1 ppm was no less than 5%. Besides, in test [1], the change in vivo at 0.1 ppm was greater than 5%. `COC(=O)c1oc2ccc(C(F)(F)F)cc2c1N(C)C` [Compound 62] yielded a relative leaf area (% of untreated control) at 0.1 ppm in the test with Nicotiana benthamiana of no less than 5%. In the case of `COC(=O)c1oc2ccc(C(F)(F)F)cc2c1NC(C)=O` [Compound 63], the relative leaf area (% of untreated control) at 0.1 ppm in the test with Nicotiana benthamiana is no less than 5%.

`COC(=O)c1oc2ccc(C(F)(F)F)cc2c1N(C(C)=O)C(C)=O` [Compound 64] came in with a relative leaf area (% of untreated control) at 0.1 ppm with Nicotiana benthamiana of no less than 5%. Besides, in test [1], the change in vivo at 0.1 ppm is greater than 5%. As to `COC(=O)c1oc2ccc(C(F)(F)F)cc2c1NC(=O)C(F)(F)F` [Compound 65], the relative leaf area (% of untreated control) at 0.1 ppm in the test on Nicotiana benthamiana is no less than 5%.

Consider `COC(=O)c1oc2ccc(C(F)(F)F)cc2c1NS(C)(=O)=O` [Compound 67], for which, in test [1], the change in vivo at 0.1 ppm was greater than 5%. Turning to `COC(=O)c1oc2ccc(C(F)(F)F)cc2c1NS(=O)(=O)c1ccccc1` [Compound 68], the relative leaf area (% of untreated control) at 0.1 ppm with Nicotiana benthamiana is no less than 5%. In addition, the change in vivo at 0.1 ppm in test [1] is greater than 5%. For the molecule `O=C(O)c1oc2ccc(C(F)(F)F)cc2c1C(F)(F)F` [Compound 69], the relative leaf area (% of untreated control) at 0.1 ppm in the test with Nicotiana benthamiana was no less than 5%. Molecule `COC(=O)c1oc2ccc(C(F)(F)F)cc2c1C(F)(F)F` [Compound 70] displayed a relative leaf area (% of untreated control) at 0.1 ppm with Nicotiana benthamiana of no less than 5%. In turn, `CCOC(=O)c1oc2ccc(C(F)(F)F)cc2c1C(F)(F)F` [Compound 71] came in with a relative leaf area (% of untreated control) at 0.1 ppm with Nicotiana benthamiana of no less than 5%. In addition, the change in vivo at 0.1 ppm in test [1] was greater than 5%.

`O=C(OCc1ccccc1)c1oc2ccc(C(F)(F)F)cc2c1C(F)(F)F` [Compound 73] had a relative leaf area (% of untreated control) at 0.1 ppm with Nicotiana benthamiana of no less than 5%. Also, the change in vivo at 0.1 ppm in test [1] was greater than 5%. The like results for `NC(=O)c1oc2ccc(C(F)(F)F)cc2c1C(F)(F)F` [Compound 74] were, in that order, no less than 5% and greater than 5%. As for `CNC(=O)c1oc2ccc(C(F)(F)F)cc2c1C(F)(F)F` [Compound 75], the change in vivo at 0.1 ppm in test [1] is greater than 5%. As for `O=C(Nc1ccccc1)c1oc2ccc(C(F)(F)F)cc2c1C(F)(F)F` [Compound 76], the relative leaf area (% of untreated control) at 0.1 ppm with Nicotiana benthamiana was no less than 5%. The change in vivo at 0.1 ppm in test [1] is greater than 5%. On to `O=C(NCc1ccccc1)c1oc2ccc(C(F)(F)F)cc2c1C(F)(F)F` [Compound 77], for which, in the test on Nicotiana benthamiana, the relative leaf area (% of untreated control) at 0.1 ppm was no less than 5%. In turn, `O=C(O)c1cc2cc(Br)ccc2o1` [Compound 79] had a relative leaf area (% of untreated control) at 0.1 ppm with Nicotiana benthamiana of no less than 5%. The change in vivo at 0.1 ppm in test [1] was greater than 5%. The molecule `CCOC(=O)c1oc2cccc(O)c2c1C` [Compound 80] had a relative leaf area (% of untreated control) at 0.1 ppm with Nicotiana benthamiana of no less than 5%. Moreover, the change in vivo at 0.1 ppm in test [1] was greater than 5%. Regarding `COC(=O)c1oc2ccccc2c1C(F)(F)F` [Compound 83], the change in vivo at 0.1 ppm in test [1] is greater than 5%. With `NC(=O)c1oc2ccccc2c1C(F)(F)F` [Compound 85], the relative leaf area (% of untreated control) at 0.1 ppm in the test on Nicotiana benthamiana is no less than 5%. `O=C(O)c1nc2c(F)cc(F)cc2s1` [Compound 86] gave a relative leaf area (% of untreated control) at 0.1 ppm in the test on Nicotiana benthamiana of no less than 5%.
